Experimental data reported in PubChem BioAssay (NCI).
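How tested: cells in 96-well plates exposed to compound for 48 hours at five concentrations. TGI: concentration producing complete growth inhibition.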

Columns and labels:
Assay in all cases: DTP human tumour cell line panel, 48 h
A549 NSCLC = tested on: A549 NSCLC
BT-549 breast = tested on: BT-549 breast
CAKI-1 renal = tested on: CAKI-1 renal
HCT-116 colon = tested on: HCT-116 colon
HCT-15 colon = tested on: HCT-15 colon
NCI-H460 lung = tested on: NCI-H460 lung
OVCAR-8 ovarian = tested on: OVCAR-8 ovarian
RPMI-8226 leukemia = tested on: RPMI-8226 leukemia
SF-268 CNS = tested on: SF-268 CNS
T-47D breast = tested on: T-47D breast
TK-10 renal = tested on: TK-10 renal

Row | Compound | TGI (A549 NSCLC) | TGI (BT-549 breast) | TGI (CAKI-1 renal) | TGI (HCT-116 colon) | TGI (HCT-15 colon) | TGI (NCI-H460 lung) | TGI (OVCAR-8 ovarian) | TGI (RPMI-8226 leukemia) | TGI (SF-268 CNS) | TGI (T-47D breast) | TGI (TK-10 renal)
1 | COc1ccc(-c2cc(-c3ccncc3)nc(N)c2-c2ccc(F)cc2)cc1 | > 100 µM | > 100 µM | > 100 µM | 51.7 µM | > 100 µM | 57.6 µM | > 100 µM | > 100 µM | > 100 µM | > 100 µM | > 100 µM
2 | COc1ccc(/C=C/C(=O)N[C@@H]2C(=O)N3[C@@H]2SC(C)(C)[C@@H]3C(=O)O)cc1OC | > 100 µM | > 100 µM | > 100 µM | > 100 µM | > 100 µM | > 100 µM | > 100 µM | > 100 µM | > 100 µM | > 100 µM | > 100 µM
3 | C=CCOC1=C(OC(C)=O)C(C2COC(C)(C)O2)OC1=O (configuration not stated) | 69.4 µM | 60.1 µM | 3.89 µM | 36 µM | 29.8 µM | 61.4 µM | > 100 µM | 61 µM | > 100 µM | 39.7 µM | 68.7 µM
4 | CC(C)(C)OC(=O)/C=C/[C@@H](CCC(=O)/C=C/[C@H](/C=C\CCCC(=O)O)NC1(c2ccccc2)c2ccccc2-c2ccccc21)O[Si](C)(C)C(C)(C)C | 37.2 µM | 33 µM | 67.8 µM | 30.2 µM | 30.2 µM | 34.7 µM | 55 µM | 85.1 µM | 35.2 µM | 55.6 µM | 52 µM
5 | CSc1c(C#N)c(=O)n(N)c2n[nH]c(C)c12 | > 100 µM | > 100 µM | > 100 µM | > 100 µM | > 100 µM | > 100 µM | > 100 µM | > 100 µM | > 100 µM | > 100 µM | > 100 µM
6 | O=c1[nH]nc(-c2ccccc2)c2[nH]c3c(c12)CCCc1ccccc1-3 | 25.6 µM | 47.4 µM | > 100 µM | 28.5 µM | 10.4 µM | 60 µM | 50.7 µM | 31.2 µM | > 100 µM | 57.5 µM | 86.4 µM
7 | CCN(CC)CCCNc1c2cc(OC)ccc2nc2cccc([N+](=O)[O-])c12 | 0.507 µM | 0.49 µM | 0.673 µM | 0.175 µM | 0.314 µM | 0.0596 µM | 0.264 µM | 0.418 µM | 0.593 µM | 0.618 µM | 0.569 µM
